Molecular target: T1, glucokinase (GK), residues 12-465 of the human enzyme (Homo sapiens, UniProt P35557)
T1 construct: I.D. No. 1 corresponds to residues 12-465 of glucokinase; made in house; host or cells: E. coli DH10b-Tlr
T1 sequence (P35557 with tags, fused parts or gaps isoform P35557-2): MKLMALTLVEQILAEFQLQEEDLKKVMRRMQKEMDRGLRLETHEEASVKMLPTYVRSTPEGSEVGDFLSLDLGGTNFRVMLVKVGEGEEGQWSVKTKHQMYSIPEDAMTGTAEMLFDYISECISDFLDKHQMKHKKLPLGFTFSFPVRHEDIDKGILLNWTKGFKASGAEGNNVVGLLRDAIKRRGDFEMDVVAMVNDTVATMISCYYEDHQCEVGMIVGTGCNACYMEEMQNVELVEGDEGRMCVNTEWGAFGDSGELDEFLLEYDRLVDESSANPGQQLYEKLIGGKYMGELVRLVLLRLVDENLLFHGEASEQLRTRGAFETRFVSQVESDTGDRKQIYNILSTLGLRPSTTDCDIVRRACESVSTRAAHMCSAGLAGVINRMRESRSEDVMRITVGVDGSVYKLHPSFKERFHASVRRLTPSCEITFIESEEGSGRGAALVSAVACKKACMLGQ
Test: Enzymatic glucokinase activity assay (KinaseGlo luminescence, ATP consumption)
Type: biochemical
Conditions: 5 μM ATP, 5 mM Glucose; for EC50: GK activation, Kact = concentration giving 50% of the maximal increase in GK activity, read-out: pKact; for Emax: calculated maximal gain in GK enzyme activity at a saturating concentration of the compound, read-out: % ACTmax
Procedure, shortened: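 C-terminally FLAG-tagged enzyme expressed in E. coli and purified. Reaction: 25 mM Hepes pH 7.2, 25 mM NaCl, 10 mM MgCl2, 0.01% Brij35, 1 mM DTT, 5 μM ATP, 5 mM glucose, 2% DMSO, 60 min at room temperature. Remaining ATP was read by luciferase luminescence; pKact and % ACTmax came from nonlinear fits of 11-point 2-fold dilutions.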

Row | SMILES | EC50 | Emax
1 | COC(=O)c1ccc(S(=O)(=O)N2CCN([C@@H](CC3CCCCC3)C(=O)Nc3nccs3)C(=O)C2)o1 [Example 158, (S)-methyl 5-(4-(3-cyclohexyl-1-oxo-1-(thiazol-2-ylamino)propan-2-yl)-3-oxopiperazin-1-ylsulfonyl)furan-2-carboxylate] | ≥ 3.16 µM | 74.1 to 97%
2 | N#Cc1ccc(NC(=S)N2CCN([C@@H](CC3CCCCC3)C(=O)Nc3nccs3)C(=O)C2)cc1 [Example 126, (S)-2-(4-(4-cyanophenylcarbamothioyl)-2-oxopiperazin-1-yl)-3-cyclohexyl-N-(thiazol-2-yl)propanamide] | 0.794 to 1.26 µM | 97.1 to 107%
3 | O=C(Nc1nccs1)[C@H](CC1CCCCC1)N1CCN(S(=O)(=O)c2ccc3ccccc3c2)CC1=O [Example 39, (S)-3-cyclohexyl-2-(4-(naphthalen-2-ylsulfonyl)-2-oxopiperazin-1-yl)-N-(thiazol-2-yl)propanamide] | 0.794 to 1.26 µM | ≤ 74%
4 | O=C(Nc1ncc(Cl)s1)[C@H](CC1CCOCC1)N1CCN(S(=O)(=O)C2CCCC2)CC1=O [Example 28, (S)-N-(5-chlorothiazol-2-yl)-2-(4-(cyclopentylsulfonyl)-2-oxopiperazin-1-yl)-3-(tetrahydro-2H-pyran-4-yl)propanamide] | ≤ 0.631 µM | ≥ 119%
5 | COc1ccc(S(=O)(=O)N2CCN([C@@H](CC3CCCCC3)C(=O)Nc3nccs3)C(=O)C2)cc1F [Example 99, (S)-3-cyclohexyl-2-(4-(3-fluoro-4-methoxyphenylsulfonyl)-2-oxopiperazin-1-yl)-N-(thiazol-2-yl)propanamide] | 0.794 to 1.26 µM | 108 to 119%
6 | O=C(Nc1nccs1)[C@H](CC1CCCCC1)N1CCN(S(=O)(=O)c2cc(F)cc(F)c2)CC1=O [Example 105, (S)-3-cyclohexyl-2-(4-(3,5-difluorophenylsulfonyl)-2-oxopiperazin-1-yl)-N-(thiazol-2-yl)propanamide] | ≤ 0.631 µM | 97.1 to 107%
7 | O=C(Nc1nccs1)[C@H](CC1CCCCC1)N1CCN(C(=S)Nc2ccc(OC(F)F)cc2)CC1=O [Example 135, (S)-3-cyclohexyl-2-(4-(4-(difluoromethoxy)phenylcarbamothioyl)-2-oxopiperazin-1-yl)-N-(thiazol-2-yl)propanamide] | ≥ 3.16 µM | 97.1 to 107%
8 | O=C(Nc1ncc(Cl)s1)C(CC1CCOCC1)N1CCN(S(=O)(=O)c2ccc(F)cc2)CC1=O (centres unmarked) [Example 33, N-(5-chlorothiazol-2-yl)-2-(4-(4-fluorophenylsulfonyl)-2-oxopiperazin-1-yl)-3-(tetrahydro-2H-pyran-4-yl)propanamide] | 0.794 to 1.26 µM | ≥ 119%
9 | O=C(Nc1nccs1)[C@H](CC1CCCCC1)N1CCN(S(=O)(=O)Cc2ccccc2)CC1=O [Example 41, (S)-2-(4-(benzylsulfonyl)-2-oxopiperazin-1-yl)-3-cyclohexyl-N-(thiazol-2-yl)propanamide] | ≤ 0.631 µM | 97.1 to 107%

Now from value to compound:

Row | EC50 | Emax | SMILES
10 | 1.58 to 2.51 µM | 74.1 to 97% | N#Cc1cc(S(=O)(=O)N2CCN([C@@H](CC3CCCCC3)C(=O)Nc3nccs3)C(=O)C2)ccc1F [Example 230, (S)-2-(4-(3-cyano-4-fluorophenylsulfonyl)-2-oxopiperazin-1-yl)-3-cyclohexyl-N-(thiazol-2-yl)propanamide]
11 | 1.58 to 2.51 µM | 74.1 to 97% | O=C(Nc1nccs1)[C@H](CC1CCCCC1)N1CCN(S(=O)(=O)c2ccc(F)c(Cl)c2)CC1=O [Example 177, (S)-2-(4-(3-chloro-4-fluorophenylsulfonyl)-2-oxopiperazin-1-yl)-3-cyclohexyl-N-(thiazol-2-yl)propanamide]
12 | 1.58 to 2.51 µM | 97.1 to 107% | CC(=O)c1cccc(S(=O)(=O)N2CCN([C@@H](CC3CCCCC3)C(=O)Nc3nccs3)C(=O)C2)c1 [Example 196, (S)-2-(4-(3-acetylphenylsulfonyl)-2-oxopiperazin-1-yl)-3-cyclohexyl-N-(thiazol-2-yl)propanamide]
13 | ≤ 0.631 µM | 108 to 119% | O=C(Nc1nccs1)[C@H](CC1CCCCC1)N1CCN(S(=O)(=O)c2ccc(Br)s2)CC1=O [Example 203, (S)-2-(4-(5-bromothiophen-2-ylsulfonyl)-2-oxopiperazin-1-yl)-3-cyclohexyl-N-(thiazol-2-yl)propanamide]
14 | 0.794 to 1.26 µM | 108 to 119% | O=C(c1ccncc1)c1cccc(S(=O)(=O)N2CCN([C@@H](CC3CCCCC3)C(=O)Nc3nccs3)C(=O)C2)c1 [Example 179, (S)-3-cyclohexyl-2-(4-(3-isonicotinoylphenylsulfonyl)-2-oxopiperazin-1-yl)-N-(thiazol-2-yl)propanamide]
15 | ≤ 0.631 µM | 97.1 to 107% | O=C(Nc1nccs1)[C@H](CC1CCCCC1)N1CCN(S(=O)(=O)c2ccc(Cl)s2)CC1=O [Example 172, (S)-2-(4-(5-chlorothiophen-2-ylsulfonyl)-2-oxopiperazin-1-yl)-3-cyclohexyl-N-(thiazol-2-yl)propanamide]
16 | ≤ 0.631 µM | ≤ 74% | O=C(Nc1nccs1)[C@H](CC1CCCCC1)N1CCN(S(=O)(=O)c2cc(Cl)c(Cl)s2)CC1=O [Example 170, (S)-3-cyclohexyl-2-(4-(4,5-dichlorothiophen-2-ylsulfonyl)-2-oxopiperazin-1-yl)-N-(thiazol-2-yl)propanamide]
